Laboratory results reported in patent publication US11065220B2, “Anti-pathogenic therapeutic compositions” (Wintermute Biomedical, Inc., priority 2017, dated 2021).

Tests used:
[1] = test system: MRSA; assay: Iodonitrotetrazolium chloride assay of MRSA growth, various anthraquinones with L-Arg and UCA; format: cell-based, Staphylococcus aureus; details: FIG. 20
Protocol: Although the WT13-13 example compound described herein uses cassic acid (rhein) as the anthraquinones, other anthraquinones may be used. This is illustrated in FIG. 20, for example. In FIG. 20, antibiotic effects of other anthraquinones were tested against MRSA. As shown, identical ratios of L-Arg and UCA were combined with various anthraquinones, including cassic acid (Rhein), aloe-emodin (AloeE), and chrysophanol (Chyrs.). Formulations were tested for MRSA growth using an iodonitrotetrazolium chloride assay. Each compound was MRSA was assayed in media control and subtracted from the values taken from the wells containing MRSA to control for colorimetric alterations. Each MRSA well contained 100,000 CFUs in 100 microliters.
As shown in FIG. 20 discussed above, in addition to cassic acid, other anthraquinones were tested for activity using an iodonitrotetrazolium chloride assay. Each anthraquinone was assayed for activity against one or more pathogen. In FIG. 20 activity was tested against MRSA growth.

[2] = test system: MRSA; assay: In-vitro resistance study, repeated sub-inhibitory exposures of MRSA; format: cell-based, Staphylococcus aureus; details: sub-inhibitory concentrations
Protocol: A number of standard in-vitro resistance studies were conducted to predict the onset and mechanism of resistance for an anti-pathogenic compound such as WT13-13. The standard test comprises exposing bacteria to sub-inhibitory concentrations of an antibiotic over a number of exposures and monitoring the bacterial growth. As the bacteria develop resistance to the drug, the growth rate will rise. Tests were performed by treating MRSA with sub-inhibitory concentrations of both WT13-13 and mupirocin (separately) in order to study the behavior of WT13-13 and compare with that of mupirocin. The horizontal dotted lines represent the ideal, non-resistant behavior. That is, if an antibiotic were effective and the bacteria not developing resistance to it, its growth curve would be flat and follow the dotted line. However, all antibiotics to date experience bacterial resistance and trend upwards of the dotted line, towards the MRSA-only control line (if an antibiotic reaches the control line, it is completely ineffective and the bacteria is resistant to the antibiotic). […] The shading 1201 highlights this behavior. […] The shading 1203 highlights this behavior. […] Such “anti-resistance” has not been reported in an antibiotic before.

Row | SMILES | inhibition of MRSA growth [1] | development of resistance over multiple exposures (growth trend) [2]
1 | O=C1c2cccc(O)c2C(=O)c2c(O)cccc21 [dantron] | Inhibition of growth | –
2 | C/C(=C\C(=O)OCCCCCCCCC(=O)O)C[C@@H]1OC[C@H](C[C@@H]2O[C@H]2[C@@H](C)[C@H](C)O)[C@@H](O)[C@H]1O [mupirocin] | – | trends upwards towards the control line
3 | O=C(O)C(=O)O [oxcalic acid] | Inhibition of growth | –
